Test results: patent publication US6026817A, “Method of treating the syndrome of coronary heart disease risk factors in humans” (priority 1998, dated 2000)
pIC50: −log10 of the molar value. Several values for one entry are separate records, joined by “and”; a condition that tells them apart may be missing. Equal entries are not always repeated.

Columns and labels:
[1] = tested on: insulin resistant subject one; assay: Example II: CHMMO given to an insulin resistant subject, blood values and liver enzymes; assay type: in vivo, human
Protocol: A insulin resistant subject was given 17-cyclopropylmethyl-3-hydroxy-14-methoxy-8β-methylmorphinan-6-one hydrochloride (CEMMO), a pure opioid antagonist, in two daily doses of 18 mg each for the duration of one week, followed by 9 mg b.i.d. for another 4 weeks.

κ opioid receptor = κ opioid receptor (Homo sapiens, UniProt P41145); assay: biochemical; assay type: binding; details: prototype ligand EKC
Excerpt: (§1) For each receptor there is a prototype ligand. […] For the μ receptor the prototype ligand is DHM (dihydromorphine). For the δ receptor, the prototype ligand is DADLE (D-Ala+D-Leu-Enkephalin), and for the κ receptor, the prototype ligand is EKC (ethylketocyclazocine).

μ opioid receptor = μ opioid receptor (Homo sapiens, UniProt P35372); assay: biochemical; assay type: binding; details: prototype ligand DHM
Excerpt: as §1

δ opioid receptor = δ opioid receptor (Homo sapiens, UniProt P41143); assay: Receptor binding, displacement of prototype ligand DADLE
Excerpt: as §1

[2] = tested on: μ, δ, and κ opiate receptors; assay: Ratios of IC50 between opiate receptors; assay type: binding
Excerpt: as §1
The relationship between the IC50 levels f or the μ, δ, κ opiate receptors may also be expressed in terms of a ratio.

[3] = tested on: subject one with Impaired Glucose Tolerance and borderline Type 2 Diabetes; assay: Example III: Nalmefene given to a subject with Impaired Glucose Tolerance, blood values, enzymes, weight, blood pressure; assay type: in vivo, human; set-up: HgbA1c Δ% (reduction) / C-Peptide Δ% (reduction) / Chol. Total Δ% (reduction) / LDL-C. Δ% (reduction) / TG Δ% (reduction) / FFA Δ% (reduction): concentration or dose not given beside the values
[4] = tested on: women with polycystic ovary syndrome with Acanthosis Nigrians; details: four women, period of a few days; cited from earlier work
[5] = Day 41 vs Day 1 (after 5 weeks)
[6] = Day 41 vs Day 1 (after 5 weeks), hydrochloride
[7] = Day 41 vs Day 1 (after 5 weeks), listed as CEMMO, hydrochloride
[8] = day 41 (after 5 weeks), 18 mg b.i.d. one week, then 9 mg b.i.d.
[9] = day 41, 18 mg b.i.d. one week, then 9 mg b.i.d.

Sequence of κ opioid receptor (P41145 whole entry): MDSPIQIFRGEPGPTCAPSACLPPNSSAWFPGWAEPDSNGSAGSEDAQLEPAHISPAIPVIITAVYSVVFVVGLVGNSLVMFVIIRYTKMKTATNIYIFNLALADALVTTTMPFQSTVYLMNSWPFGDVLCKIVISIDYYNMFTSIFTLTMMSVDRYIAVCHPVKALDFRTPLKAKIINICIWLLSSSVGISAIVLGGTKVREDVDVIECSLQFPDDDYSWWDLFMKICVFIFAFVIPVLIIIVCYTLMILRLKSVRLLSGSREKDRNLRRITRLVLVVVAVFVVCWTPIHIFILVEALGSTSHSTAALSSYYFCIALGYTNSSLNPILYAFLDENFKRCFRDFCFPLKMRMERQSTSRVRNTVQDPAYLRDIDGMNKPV
Sequence of μ opioid receptor (P35372 whole entry): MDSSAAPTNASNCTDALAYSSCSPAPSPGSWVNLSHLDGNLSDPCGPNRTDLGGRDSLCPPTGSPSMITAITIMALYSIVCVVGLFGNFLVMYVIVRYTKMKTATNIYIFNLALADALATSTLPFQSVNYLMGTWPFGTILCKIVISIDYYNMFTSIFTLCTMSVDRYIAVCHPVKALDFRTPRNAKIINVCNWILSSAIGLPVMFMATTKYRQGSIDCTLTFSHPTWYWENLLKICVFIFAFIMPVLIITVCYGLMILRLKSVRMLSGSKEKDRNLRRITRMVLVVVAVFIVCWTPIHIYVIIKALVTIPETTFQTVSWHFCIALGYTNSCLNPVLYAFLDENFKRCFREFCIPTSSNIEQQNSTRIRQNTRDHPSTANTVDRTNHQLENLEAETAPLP
Sequence of δ opioid receptor (P41143 whole entry): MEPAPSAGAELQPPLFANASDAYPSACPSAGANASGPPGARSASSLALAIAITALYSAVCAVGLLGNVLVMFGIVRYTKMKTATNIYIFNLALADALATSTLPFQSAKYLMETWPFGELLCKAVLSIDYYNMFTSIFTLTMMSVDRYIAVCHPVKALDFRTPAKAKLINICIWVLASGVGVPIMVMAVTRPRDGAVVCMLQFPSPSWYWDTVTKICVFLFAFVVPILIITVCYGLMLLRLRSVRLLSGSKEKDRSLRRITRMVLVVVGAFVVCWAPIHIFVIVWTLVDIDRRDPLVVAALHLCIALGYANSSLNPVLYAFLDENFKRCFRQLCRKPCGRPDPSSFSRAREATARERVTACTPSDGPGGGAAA

CO[C@@]12[C@@H](C)CC(=O)C[C@@]13CCN(CC1CC1)[C@@H]2Cc1ccc(O)cc13.Cl [CHMMO, 17-cyclopropylmethyl-3-hydroxy-14-methoxy-8βmethylmorphinan-6-one hydrochloride]
Weight ([1]; Day 1): 82 kg | Alk-phos ([1]; Day 1, Table III): 145 U/L | Weight ([1]; Day 41, 9.0 mg b.i.d.): 80 kg | Alk-phos ([1]; Day 41, 9.0 mg b.i.d., Table III): 126 U/L | ALT Δ% ([1]; Day 41 vs Day 1): 31% | AST Δ% ([1]; Day 41 vs Day 1): 30% | Alk-phos Δ% ([1]; Day 41 vs Day 1): 6% | Glucose Δ% ([1]; Day 41 vs Day 1): 14% | LD Δ% ([1]; Day 41 vs Day 1): 27% | Weight Δ% ([1]; Day 41 vs Day 1): 4.5% | Chol. Total Δ% (fall) [1, 5]: 21% | LDL-C. Δ% (fall) [1, 5]: 7% | TG Δ% (fall) [1, 5]: 42% | FFA Δ% (fall) [1, 6]: 22.7% | HDL-C. Δ% (increase) [1, 6]: 16% | Insulin Δ% (fall) [1, 6]: 50% | LDL/HDL Δ% (improvement) [1, 6]: 22% | FFA Δ% (fall) [1, 7]: 23% | HDL-C. Δ% (increase) [1, 7]: 20% | Insulin Δ% (fall) [1, 7]: about 50% | LDL/HDL Δ% (improvement) [1, 7]: 23% | Blood glucose ([1]; after the first week, 18 mg twice daily, remained essentially at the same level): 95 mg/dL | ALT ([1]; day 1): 29 U/L | AST ([1]; day 1): 23 U/L | CH. T (total cholesterol) ([1]; day 1): 234 mg/dL | FFA ([1]; day 1): 0.75 mM/L | Gluc. ([1]; day 1): 111 mg/dL | HDL ([1]; day 1): 30 mg/dL | Insulin ([1]; day 1): 14 μU/ml | LD ([1]; day 1): 162 U/L | LDL ([1]; day 1): 156 mg/dL | LDL/HDL ([1]; day 1): 5.2 | TG ([1]; day 1): 229 mg/dL | Alk.-Phos ([1]; day 1, Table II (unit not given)): 145 | ALT ([1]; day 41): 20 U/L | AST ([1]; day 41): 16 U/L | LD ([1]; day 41): 117 U/L | CH. T (total cholesterol) [1, 8]: 185 mg/dL | HDL [1, 8]: 36 mg/dL | Insulin [1, 8]: 6 μU/ml | LDL [1, 8]: 145 mg/dL | TG [1, 8]: 133 mg/dL | LDL/HDL ([1]; day 41 (after 5 weeks), 18 mg b.i.d. one week, then 9 mg b.i.d., hydrochloride): 4.0 and 4.03 | LDL/HDL ([1]; day 41 (after 5 weeks), 18 mg b.i.d. one week, then 9 mg b.i.d., listed as CEMMO, hydrochloride): 4.0 | Alk.-Phos ([1]; day 41, Table II (unit not given)): 126 | FFA [1, 9]: 0.58 mM/L | Gluc. [1, 9]: 95 mg/dL | drop of blood glucose ([1]; during the first week, 18 mg twice daily): 15% | FFA ([1]; end of study, after 5 weeks): 580 μE/L | Weight ([1]; end of the study): slight weight loss | FFA ([1]; start of study): 754 μE/L | pIC50 (κ opioid receptor): 9.02 | pIC50 (μ opioid receptor): 9.30 | pIC50 (δ opioid receptor): 9.10 | IC50 κ/ IC50 δ ratio [2]: < 3 | IC50 κ/ IC50 μ ratio [2]: < 3 | δ,κ,μ IC50 being within a factor of [2]: ≤ 3

C=C1CC[C@@]2(O)[C@H]3Cc4ccc(O)c5c4[C@@]2(CCN3CC2CC2)[C@H]1O5 [Nalmefene, 6-desoxy-6-methylene-naltrexone]
ALT ([3]; Day 1): 72 U/L | AST ([3]; Day 1): 31 U/L | Alk-phos ([3]; Day 1): 70 U/L | Blood Pressure, diastolic ([3]; Day 1): 100 | Blood Pressure, systolic ([3]; Day 1): 136 | C-Peptide ([3]; Day 1): 4.7 ng/mL | Chol. Total ([3]; Day 1): 247 mg/dL | FFA ([3]; Day 1): 0.68 mM/L | GG-transp ([3]; Day 1): 56 U/L | Glucose ([3]; Day 1): 138 mg/dL | HDL-C. ([3]; Day 1): 37 mg/dL | HgbA1c ([3]; Day 1): 6.0% | Insulin ([3]; Day 1): 27 μU/ml | LD ([3]; Day 1): 125 U/L | LDL-C. ([3]; Day 1): 140 mg/dL | LDL/HDL ([3]; Day 1): 3.78 | TG ([3]; Day 1): 270 mg/dL | Weight ([3]; Day 1): 86 kg | ALT ([3]; Day 141, 0.5 mg b.i.d.): 42 U/L | AST ([3]; Day 141, 0.5 mg b.i.d.): 16 U/L | Alk-phos ([3]; Day 141, 0.5 mg b.i.d.): 72 U/L | Blood Pressure, diastolic ([3]; Day 141, 0.5 mg b.i.d.): 83 | Blood Pressure, systolic ([3]; Day 141, 0.5 mg b.i.d.): 128 | C-Peptide ([3]; Day 141, 0.5 mg b.i.d.): 2.9 ng/mL | Chol. Total ([3]; Day 141, 0.5 mg b.i.d.): 193 mg/dL | FFA ([3]; Day 141, 0.5 mg b.i.d.): 0.41 mM/L | GG-transp ([3]; Day 141, 0.5 mg b.i.d.): 32 U/L | Glucose ([3]; Day 141, 0.5 mg b.i.d.): 120 mg/dL | HDL-C. ([3]; Day 141, 0.5 mg b.i.d.): 40 mg/dL | HgbA1c ([3]; Day 141, 0.5 mg b.i.d.): 5.4% | Insulin ([3]; Day 141, 0.5 mg b.i.d.): 16 μU/ml | LD ([3]; Day 141, 0.5 mg b.i.d.): 120 U/L | LDL-C. ([3]; Day 141, 0.5 mg b.i.d.): 118 mg/dL | LDL/HDL ([3]; Day 141, 0.5 mg b.i.d.): 2.95 | TG ([3]; Day 141, 0.5 mg b.i.d.): 175 mg/dL | Weight ([3]; Day 141, 0.5 mg b.i.d.): 79 kg | ALT Δ% ([3]; Day 141 vs Day 1): 42% | AST Δ% ([3]; Day 141 vs Day 1): 48% | Alk-phos Δ% ([3]; Day 141 vs Day 1): 3% | Blood Pressure reduction, diastolic ([3]; Day 141 vs Day 1): 17 pts | Blood Pressure reduction, systolic ([3]; Day 141 vs Day 1): 8 pts | C-Peptide Δ% (reduction) ([3]; Day 141 vs Day 1): 38% | Chol. Total Δ% (reduction) ([3]; Day 141 vs Day 1): 22% | FFA Δ% (reduction) ([3]; Day 141 vs Day 1): 40% | GG-transp Δ% ([3]; Day 141 vs Day 1): 43% | Glucose Δ% (reduction in fasting blood glucose) ([3]; Day 141 vs Day 1): 13% | HDL-C. Δ% (increase) ([3]; Day 141 vs Day 1): 8% | HgbA1c Δ% (reduction) ([3]; Day 141 vs Day 1): 10% | Insulin Δ% ([3]; Day 141 vs Day 1): 43% | LD Δ% ([3]; Day 141 vs Day 1): 4% | LDL-C. Δ% (reduction) ([3]; Day 141 vs Day 1): 16% | LDL/HDL Δ% (improvement) ([3]; Day 141 vs Day 1): 22% | TG Δ% (reduction) ([3]; Day 141 vs Day 1): 35% | Weight Δ% (reduction) ([3]; Day 141 vs Day 1): 8% | δ,κ,μ IC50 being within a factor of [2]: ≤ 10 | elevated insulin concentrations [4]: reduced
